Laboratory results from the NIST ThermoML archive (doi:10.1021/je600565m).

Experiment: xn = mol fraction of the nth substance listed
Conditions: 101 kPa, Liquid

CCO [ethanol] + O
Conditions	mass density [kg/m3]	viscosity [mPa·s]
298.15 K, x2 = 0.0998	797.6	–
298.15 K, x2 = 0.2009	–	1.407
298.15 K, x2 = 0.2018	810.78	–
298.15 K, x2 = 0.3001	–	1.558
298.15 K, x2 = 0.3085	826.73	–
298.15 K, x2 = 0.4016	–	1.761
298.15 K, x2 = 0.4145	843.26	–
298.15 K, x2 = 0.5001	858.65	1.946
298.15 K, x2 = 0.6	–	2.166
298.15 K, x2 = 0.6205	885.56	–
298.15 K, x2 = 0.7	–	2.342
298.15 K, x2 = 0.7005	904.69	–
298.15 K, x2 = 0.7992	933.6	–
298.15 K, x2 = 0.8	–	2.39
298.15 K, x2 = 0.9	–	1.923
298.15 K, x2 = 0.9051	965.51	–
318.15 K, x2 = 0.1	780.53	0.848
318.15 K, x2 = 0.2	–	0.951
318.15 K, x2 = 0.201	793.6	–
318.15 K, x2 = 0.3001	807.71	1.003
318.15 K, x2 = 0.4004	823.81	–
318.15 K, x2 = 0.4036	–	1.09
318.15 K, x2 = 0.5002	–	1.168
318.15 K, x2 = 0.5003	840.31	–
318.15 K, x2 = 0.5998	863.31	–
318.15 K, x2 = 0.6	–	1.243
318.15 K, x2 = 0.7	–	1.298
318.15 K, x2 = 0.7001	888.76	–
318.15 K, x2 = 0.8001	919.19	–
318.15 K, x2 = 0.8007	–	1.293
318.15 K, x2 = 0.9	952.47	0.977

CCOC(C)=O [ethyl acetate] + CCO
Conditions	mass density [kg/m3]	viscosity [mPa·s]
298.15 K, x1 = 0.1	801.5	0.848
298.15 K, x1 = 0.1992	816.25	–
298.15 K, x1 = 0.2	–	0.707
298.15 K, x1 = 0.3	–	0.614
298.15 K, x1 = 0.3006	829.52	–
298.15 K, x1 = 0.3949	840.61	–
298.15 K, x1 = 0.4	–	0.56
298.15 K, x1 = 0.5	–	0.513
298.15 K, x1 = 0.5001	852.04	–
298.15 K, x1 = 0.5987	861.64	–
298.15 K, x1 = 0.6	–	0.488
298.15 K, x1 = 0.7	870.79	0.465
298.15 K, x1 = 0.7981	879.06	–
298.15 K, x1 = 0.8	–	0.448
298.15 K, x1 = 0.9	886.96	0.434
298.15 K, x1 = 0.9501	890.81	–
318.15 K, x1 = 0.1	783.09	0.624
318.15 K, x1 = 0.2	–	0.535
318.15 K, x1 = 0.2001	796.45	–
318.15 K, x1 = 0.3	808.31	–
318.15 K, x1 = 0.3007	–	0.471
318.15 K, x1 = 0.4	–	0.432
318.15 K, x1 = 0.4001	819.37	–
318.15 K, x1 = 0.5	829.53	0.412
318.15 K, x1 = 0.6	838.75	–
318.15 K, x1 = 0.6003	–	0.387
318.15 K, x1 = 0.7	847.18	–
318.15 K, x1 = 0.7006	–	0.374
318.15 K, x1 = 0.8	–	0.364
318.15 K, x1 = 0.8001	855.16	–
318.15 K, x1 = 0.8999	862.6	–
318.15 K, x1 = 0.9	–	0.36

CCOC(C)=O [ethyl acetate] + O
Conditions	mass density [kg/m3]	viscosity [mPa·s]
298.15 K, x2 = 0.0258	–	0.436
298.15 K, x2 = 0.0269	895.32	–
298.15 K, x2 = 0.045	–	0.444
298.15 K, x2 = 0.0469	896.13	–
298.15 K, x2 = 0.0722	897.09	–
298.15 K, x2 = 0.0748	–	0.456
298.15 K, x2 = 0.0853	–	0.46
298.15 K, x2 = 0.0892	897.9	–
298.15 K, x2 = 0.1045	898.48	–
298.15 K, x2 = 0.1053	–	0.468
298.15 K, x2 = 0.1249	899.5	–
298.15 K, x2 = 0.1258	–	0.476
318.15 K, x2 = 0.0249	870.81	–
318.15 K, x2 = 0.025	–	0.362
318.15 K, x2 = 0.0496	–	0.368
318.15 K, x2 = 0.0524	871.8	–
318.15 K, x2 = 0.075	–	0.373
318.15 K, x2 = 0.0766	872.73	–
318.15 K, x2 = 0.0999	–	0.379
318.15 K, x2 = 0.1003	873.94	–
318.15 K, x2 = 0.1254	–	0.385
318.15 K, x2 = 0.1255	875.08	–
